# Laboratory results published in publication PMC6747015, “Structure–function study of a novel inhibitor of the casein kinase 1 family in Arabidopsis thaliana” (Plant Direct, 2019).
# Key:
# [1] = target: T1, CKL5 (AT2G19470) (Arabidopsis thaliana, UniProt Q9ZUP4); test: AMI‐329 bead binding with AMI‐331 competitor, CKL5
# T1 construct: from tissue; host or cells: Arabidopsis seedlings, two weeks old
# Procedure: (§1) Screening for proteins bound to AMI‐329 beads was done by a method similar to what has previously been described (Uehara et al., 2019). Briefly, two‐week‐old seedlings grown under LD conditions were harvested at time points ZT2, ZT6, ZT9, and ZT17, and stored at −80°C. Proteins from the frozen plant samples were incubated with 0, 5, or 50 µM of AMI‐331 at 4°C for 30 min with rotary mixing. Two technical replicates were used for each experiment. PBS‐washed AMI‐329 beads were added to the protein samples and gently rotated at 4°C for 1 hr. AMI‐329 bead resins were washed with bead buffer (Uehara et al., 2019) six times. The washed resins were suspended in SDS sample buffer and boiled for 8 min. Protein samples were in‐gel‐digested as previously described (Uehara et al., 2019). Peptides were analyzed with a Q Exactive hybrid quadrupole‐orbitrap mass spectrometer (Thermo Fisher Scientific), as described previously (Uehara et al., 2019). […]
# (§2) However, another possible mechanism for the strong AMI‐331 biological activity in vivo is that it targets proteins other than the CK1 family for period lengthening. […] It is noteworthy that kinase AT4G08800 is very similar to the CKL family, but the ATP‐binding pocket of mammalian CK1 as determined by its crystal structure (Shinohara et al., 2017) was absent from AT4G08800, as shown in an Araport 11 model (https://www.araport.org). […]
# [2] = target: T2, Kinase AT4G34500 (Arabidopsis thaliana, UniProt Q6NKZ9); test: AMI‐329 bead binding with AMI‐331 competitor, kinase AT4G34500
# T2 construct: from tissue; host or cells: Arabidopsis seedlings, two weeks old
# T2 sequence (Q6NKZ9 whole entry): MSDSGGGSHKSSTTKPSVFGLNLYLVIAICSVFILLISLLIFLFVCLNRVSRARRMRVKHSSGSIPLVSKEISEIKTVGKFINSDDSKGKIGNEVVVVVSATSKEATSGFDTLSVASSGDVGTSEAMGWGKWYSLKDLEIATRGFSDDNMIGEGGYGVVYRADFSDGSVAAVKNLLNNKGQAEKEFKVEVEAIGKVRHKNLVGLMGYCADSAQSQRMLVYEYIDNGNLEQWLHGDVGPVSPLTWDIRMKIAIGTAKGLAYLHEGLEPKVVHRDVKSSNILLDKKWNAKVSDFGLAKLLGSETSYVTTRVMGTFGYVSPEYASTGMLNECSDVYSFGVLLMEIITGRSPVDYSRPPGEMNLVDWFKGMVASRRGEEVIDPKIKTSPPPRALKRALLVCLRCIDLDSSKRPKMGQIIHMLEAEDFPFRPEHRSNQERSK
# Procedure: as §1, §2
# [3] = target: T3, CKL12 (AT5G57015) (Arabidopsis thaliana, UniProt Q8VYK9); test: AMI‐329 bead binding with AMI‐331 competitor, CKL12
# T3 construct: from tissue; host or cells: Arabidopsis seedlings, two weeks old
# T3 sequence (Q8VYK9 whole entry): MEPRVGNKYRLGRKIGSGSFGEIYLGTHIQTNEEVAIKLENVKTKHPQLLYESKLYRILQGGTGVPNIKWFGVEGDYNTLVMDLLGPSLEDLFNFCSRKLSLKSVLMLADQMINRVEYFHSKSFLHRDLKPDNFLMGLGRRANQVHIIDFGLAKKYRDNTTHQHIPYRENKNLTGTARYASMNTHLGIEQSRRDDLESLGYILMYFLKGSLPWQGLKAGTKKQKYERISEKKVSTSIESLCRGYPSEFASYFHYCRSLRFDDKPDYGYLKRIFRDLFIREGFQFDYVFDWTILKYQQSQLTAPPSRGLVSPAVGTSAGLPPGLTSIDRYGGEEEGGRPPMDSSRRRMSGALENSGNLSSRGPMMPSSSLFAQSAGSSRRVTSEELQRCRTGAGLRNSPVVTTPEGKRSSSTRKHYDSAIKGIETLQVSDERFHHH
# Procedure: as §1, §2
# [4] = target: T4, RNA‐binding AT3G15010 (Arabidopsis thaliana, UniProt Q9LKA4); test: AMI‐329 bead binding with AMI‐331 competitor, RNA‐binding protein AT3G15010
# T4 construct: Proteins from the frozen plant samples were incubated with 0, 5, or 50 µM of AMI‐331; from tissue; host or cells: two-week-old Arabidopsis seedlings (protein lysate)
# T4 sequence (Q9LKA4 whole entry): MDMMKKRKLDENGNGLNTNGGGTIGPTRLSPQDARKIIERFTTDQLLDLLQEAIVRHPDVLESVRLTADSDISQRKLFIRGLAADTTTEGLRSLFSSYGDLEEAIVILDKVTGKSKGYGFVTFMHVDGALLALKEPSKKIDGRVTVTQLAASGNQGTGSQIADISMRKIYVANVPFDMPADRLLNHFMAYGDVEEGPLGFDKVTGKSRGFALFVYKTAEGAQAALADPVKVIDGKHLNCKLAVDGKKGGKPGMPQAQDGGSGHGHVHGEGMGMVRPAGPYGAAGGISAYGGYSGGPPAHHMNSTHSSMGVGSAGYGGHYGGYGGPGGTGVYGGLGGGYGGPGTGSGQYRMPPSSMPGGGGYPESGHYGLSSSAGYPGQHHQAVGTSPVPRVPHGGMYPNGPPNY
# Procedure: as §1, §2
# [5] = target: T5, YAK1 (AT5G35980) (Arabidopsis thaliana, UniProt Q8RWH3); test: AMI‐329 bead binding with AMI‐331 competitor, YAK1
# T5 construct: Proteins from the frozen plant samples were incubated with 0, 5, or 50 µM of AMI‐331; from tissue; host or cells: two-week-old Arabidopsis seedlings (protein lysate)
# T5 sequence (Q8RWH3 whole entry): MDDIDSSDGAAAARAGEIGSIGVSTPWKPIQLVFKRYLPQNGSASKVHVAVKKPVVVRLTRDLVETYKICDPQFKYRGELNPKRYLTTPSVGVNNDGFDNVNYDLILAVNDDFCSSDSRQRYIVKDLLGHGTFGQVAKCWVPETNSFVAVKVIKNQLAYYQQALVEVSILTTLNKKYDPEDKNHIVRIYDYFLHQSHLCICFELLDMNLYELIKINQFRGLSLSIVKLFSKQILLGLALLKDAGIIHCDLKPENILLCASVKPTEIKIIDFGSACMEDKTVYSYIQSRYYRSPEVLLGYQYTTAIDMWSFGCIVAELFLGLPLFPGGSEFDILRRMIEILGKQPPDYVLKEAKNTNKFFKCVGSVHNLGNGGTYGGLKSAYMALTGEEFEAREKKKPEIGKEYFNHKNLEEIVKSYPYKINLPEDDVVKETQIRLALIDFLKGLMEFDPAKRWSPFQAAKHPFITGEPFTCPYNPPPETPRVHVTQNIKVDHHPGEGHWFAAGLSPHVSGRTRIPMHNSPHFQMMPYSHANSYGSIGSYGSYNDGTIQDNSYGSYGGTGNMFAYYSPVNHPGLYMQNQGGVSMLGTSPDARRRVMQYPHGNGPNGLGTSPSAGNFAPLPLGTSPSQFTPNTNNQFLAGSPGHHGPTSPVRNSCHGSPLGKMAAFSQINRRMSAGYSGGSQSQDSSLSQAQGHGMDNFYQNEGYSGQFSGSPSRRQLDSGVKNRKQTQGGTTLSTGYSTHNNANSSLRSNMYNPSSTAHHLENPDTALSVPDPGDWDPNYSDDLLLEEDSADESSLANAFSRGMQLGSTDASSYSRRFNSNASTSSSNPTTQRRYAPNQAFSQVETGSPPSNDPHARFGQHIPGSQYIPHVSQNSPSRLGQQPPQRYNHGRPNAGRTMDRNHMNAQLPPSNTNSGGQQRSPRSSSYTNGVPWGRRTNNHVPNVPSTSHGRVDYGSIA
# Procedure: as §1, §2
# [6] = target: CKL1 (Arabidopsis thaliana, UniProt P42158); test: In vitro CKL1 kinase activity; format: biochemical
# CKL1, sequence (P42158 whole entry): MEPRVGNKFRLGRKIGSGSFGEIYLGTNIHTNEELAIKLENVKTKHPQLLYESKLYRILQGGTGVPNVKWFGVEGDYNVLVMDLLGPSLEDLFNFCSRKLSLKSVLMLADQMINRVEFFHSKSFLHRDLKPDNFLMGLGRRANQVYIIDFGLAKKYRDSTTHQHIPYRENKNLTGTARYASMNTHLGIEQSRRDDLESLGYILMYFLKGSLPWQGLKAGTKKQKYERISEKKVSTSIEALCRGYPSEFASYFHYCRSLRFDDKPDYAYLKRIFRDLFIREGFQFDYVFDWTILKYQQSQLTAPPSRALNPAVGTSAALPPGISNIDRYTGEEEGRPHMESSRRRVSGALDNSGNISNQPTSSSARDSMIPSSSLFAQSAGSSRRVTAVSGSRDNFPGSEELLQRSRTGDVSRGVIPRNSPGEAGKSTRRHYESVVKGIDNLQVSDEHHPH
# From the text: Supplemental Figure3.InvitroCKL1 kinaseactivitywithAMI-331.
# [7] = target: T6, CKL10 (AT3G23340) (Arabidopsis thaliana, UniProt Q9LW62); test: AMI‐329 bead binding with AMI‐331 competitor, CKL10
# T6 construct: from tissue; host or cells: Arabidopsis seedlings, two weeks old
# T6 sequence (Q9LW62 whole entry): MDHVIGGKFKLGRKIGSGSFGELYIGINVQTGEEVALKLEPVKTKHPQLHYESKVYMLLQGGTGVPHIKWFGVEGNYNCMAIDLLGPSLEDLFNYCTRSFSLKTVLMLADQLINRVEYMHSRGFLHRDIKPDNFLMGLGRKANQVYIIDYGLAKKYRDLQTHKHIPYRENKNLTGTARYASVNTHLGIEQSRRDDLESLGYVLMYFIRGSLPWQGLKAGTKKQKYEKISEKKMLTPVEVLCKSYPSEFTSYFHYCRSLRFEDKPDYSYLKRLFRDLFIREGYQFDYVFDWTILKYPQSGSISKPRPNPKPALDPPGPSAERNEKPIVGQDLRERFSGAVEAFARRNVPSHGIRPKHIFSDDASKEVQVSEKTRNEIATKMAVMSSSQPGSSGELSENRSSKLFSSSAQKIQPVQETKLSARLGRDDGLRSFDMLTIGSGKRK
# Procedure: as §1, §2
# [8] = target: T7, CKL2 (AT1G72710) (Arabidopsis thaliana, UniProt Q9CAI5); test: AMI‐329 bead binding with AMI‐331 competitor, CKL2
# T7 construct: from tissue; host or cells: Arabidopsis seedlings, two weeks old
# T7 sequence (Q9CAI5 whole entry): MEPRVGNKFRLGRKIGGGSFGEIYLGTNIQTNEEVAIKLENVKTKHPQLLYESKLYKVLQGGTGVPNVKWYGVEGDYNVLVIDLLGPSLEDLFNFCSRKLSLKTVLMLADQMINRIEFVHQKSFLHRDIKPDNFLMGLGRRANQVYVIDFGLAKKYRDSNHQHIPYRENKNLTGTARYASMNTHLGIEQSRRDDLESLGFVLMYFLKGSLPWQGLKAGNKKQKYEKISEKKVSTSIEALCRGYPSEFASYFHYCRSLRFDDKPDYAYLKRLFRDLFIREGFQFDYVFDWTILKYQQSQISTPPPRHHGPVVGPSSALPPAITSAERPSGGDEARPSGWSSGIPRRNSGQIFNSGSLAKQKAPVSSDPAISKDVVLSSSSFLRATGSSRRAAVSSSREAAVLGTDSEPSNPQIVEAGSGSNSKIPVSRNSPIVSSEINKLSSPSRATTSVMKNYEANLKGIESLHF
# Procedure: as §1, §2
# T1 sequence (Q9ZUP4 whole entry): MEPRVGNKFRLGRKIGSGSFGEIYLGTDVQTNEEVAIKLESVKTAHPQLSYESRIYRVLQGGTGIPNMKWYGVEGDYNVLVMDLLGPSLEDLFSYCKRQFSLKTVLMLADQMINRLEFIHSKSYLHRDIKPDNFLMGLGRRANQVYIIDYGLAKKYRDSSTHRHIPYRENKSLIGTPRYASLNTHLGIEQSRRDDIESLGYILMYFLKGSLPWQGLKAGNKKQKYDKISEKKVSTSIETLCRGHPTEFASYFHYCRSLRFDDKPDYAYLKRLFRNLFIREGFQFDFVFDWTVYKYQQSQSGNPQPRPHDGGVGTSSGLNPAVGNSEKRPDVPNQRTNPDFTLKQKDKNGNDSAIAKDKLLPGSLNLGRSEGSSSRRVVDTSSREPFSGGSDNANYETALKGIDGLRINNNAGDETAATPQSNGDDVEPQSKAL
structure (smiles),measurement,setting,value
C#CCn1c2c(c(Br)c1-c1ccncc1)C(=O)NCC2.Cl [AMI‐331],Spectra (PSMs) AMI‐329 beads bound,[1]; competitor AMI‐331 5 µM,1 PSMs
same,Spectra (PSMs) AMI‐329 beads bound,[1]; competitor AMI‐331 50 µM,0 PSMs
same,Spectra (PSMs) AMI‐329 beads bound,[2]; competitor AMI‐331 5 µM,0 PSMs
same,Spectra (PSMs) AMI‐329 beads bound,[2]; competitor AMI‐331 50 µM,0 PSMs
same,Spectra (PSMs) AMI‐329 beads bound,[3]; competitor AMI‐331 5 µM,2 PSMs
same,Spectra (PSMs) AMI‐329 beads bound,[3]; competitor AMI‐331 50 µM,0 PSMs
same,Spectra (PSMs) AMI‐329 beads bound,[4]; competitor AMI‐331 5 µM,0 PSMs
same,Spectra (PSMs) AMI‐329 beads bound,[4]; competitor AMI‐331 50 µM,0 PSMs
same,Spectra (PSMs) AMI‐329 beads bound,[5]; competitor AMI‐331 5 µM,0 PSMs
same,Spectra (PSMs) AMI‐329 beads bound,[5]; competitor AMI‐331 50 µM,0 PSMs
same,IC50,[6],1.4 µM
same,Spectra (PSMs) AMI‐329 beads bound,[7]; competitor AMI‐331 5 µM,1 PSMs
same,Spectra (PSMs) AMI‐329 beads bound,[7]; competitor AMI‐331 50 µM,0 PSMs
same,Spectra (PSMs) AMI‐329 beads bound,[8]; competitor AMI‐331 5 µM,1 PSMs
same,Spectra (PSMs) AMI‐329 beads bound,[8]; competitor AMI‐331 50 µM,0 PSMs
